Key:
Format in all cases: cell-based
Settings in all cases: maximal inhibition; 4 h treatment; maximum concentration 100 µM
[1] = test system: A2780 cells; experiment: MTT reduction assay on A2780 cells
Experimental: For MTT assays, 4 × 10^3 A2780 cells were plated into 96-well plates, and for SRB assays, 1.5 × 10^3 A2780 cells were plated into 96-well plates. Cells were treated with the compounds in the concentrations indicated for either 4 h for an MTT assay or for 48 h for an SRB assay. Data are represented as average ± SD, from four biological replicates, with the exception of the MTT dataset of Ir-2b and the SRB datasets of 2b, Ru/Ir-2b, and Ir-3a, which were derived from three biological replicates. Individual assays were performed in duplicate. Values were normalized for vehicle-treated cells, and the absorbance for vehicle-treated cells equals 1. Data are represented as fold change compared to vehicle-treated controls. Normality was assessed using the D'Agostino-Pearson test. Statistical significance was assessed using a two-way ANOVA test followed by Tukey's post hoc test. For better visibility, normality, transformations, statistical tests, and p values are presented in an MS Excel sheet at https://figshare.com/s/3a0aa60b66f3f746f41e. Color code: black-free ligand (2a,b or 3a), khaki-ruthenium complex (Ru-2a,b or Ru-3a), green-iridium complex (Ir-2a,b or Ir-3a).  FIGURE 5 The ruthenium, osmium, and iridium complexes of ligands 4a, 4b, and 5a decrease MTT reduction. For MTT assays, 4 × 10^3 A2780 cells, 3 × 10^3 ID8 cells, or 6 × 10^3 human primary fibroblasts were plated into 96-well plates. Cells were treated with the compounds in the concentrations indicated for 4 h. Data are represented as average ± SD, from four biological replicates on A2780, and from three biological replicates on ID8 and human primary fibroblasts. For the datasets of 5a and Os-5a on human primary fibroblasts, the data represent four biological replicates. Individual assays were performed in duplicate. Values were normalized for vehicle-treated cells, and the absorbance for vehicle-treated cells equals 1. Normality was assessed using the D'Agostino-Pearson test. Statistical significance was assessed using a two-way ANOVA test followed by Tukey's post hoc test. For better visibility, normality, transformations, statistical tests, and p values are presented in an MS Excel sheet at https://figshare.com/s/3a0aa60b66f3f746f41e. Color code: black-free ligand (4a,b or 5a), khaki-ruthenium complex (Ru-4a,b), green-iridium complex (Ir-4a,b), blue-osmium complex (Os-4a,b or Os-5a), and red-rhodium complex (Rh-4a,b). An MTT reduction assay measures the activity of mitochondrial complex I and can be used to detect toxicity ([[…] et al., 2016]). The assay was performed in a manner similar to that described by [[…] et al. (2023b)]. Briefly, cells were plated into 96-well plates the day before the assay. Cells were treated with the compounds for 4 h; then, MTT was added to a 0.5 mg/mL final concentration, and cells were incubated at 37°C in a cell incubator for 40-60 min, as a function of the cell line being assessed. The culture medium was removed, the reduced MTT dye was dissolved in dimethylsulfoxide, and plates were measured in a plate photometer (Thermo Scientific Multiscan GO spectrophotometer, Waltham, MA, United States) at 540 nm. Certain wells were designated to contain vehicle-treated cells on each plate. In calculations, the readings for these wells were considered to 1, and all readings were expressed relative to these values. Statistical analysis was performed using version 8.0.1 of GraphPad Prism. Values were tested for normal distribution using the D'Agostino-Pearson or Shapiro-Wilk normality tests. When necessary, values were log-normalized or normalized using the Box-Cox or two-step normalization method ([Box and Cox, 1964]), as indicated in the MS Excel file listing the values at https://figshare.com/s/3a0aa60b66f3f746f41e. The following statistical test, post hoc test, and the level of significance are indicated in the MS Excel file listing the values at https://figshare.com/s/3a0aa60b66f3f746f41e. […]

[2] = test system: ID8 cells; experiment: MTT reduction assay on ID8 cells
Experimental: (§1) FIGURE 5 The ruthenium, osmium, and iridium complexes of ligands 4a, 4b, and 5a decrease MTT reduction. For MTT assays, 4 × 10^3 A2780 cells, 3 × 10^3 ID8 cells, or 6 × 10^3 human primary fibroblasts were plated into 96-well plates. Cells were treated with the compounds in the concentrations indicated for 4 h. Data are represented as average ± SD, from four biological replicates on A2780, and from three biological replicates on ID8 and human primary fibroblasts. For the datasets of 5a and Os-5a on human primary fibroblasts, the data represent four biological replicates. Individual assays were performed in duplicate. Values were normalized for vehicle-treated cells, and the absorbance for vehicle-treated cells equals 1. Normality was assessed using the D'Agostino-Pearson test. Statistical significance was assessed using a two-way ANOVA test followed by Tukey's post hoc test. For better visibility, normality, transformations, statistical tests, and p values are presented in an MS Excel sheet at https://figshare.com/s/3a0aa60b66f3f746f41e. Color code: black-free ligand (4a,b or 5a), khaki-ruthenium complex (Ru-4a,b), green-iridium complex (Ir-4a,b), blue-osmium complex (Os-4a,b or Os-5a), and red-rhodium complex (Rh-4a,b). An MTT reduction assay measures the activity of mitochondrial complex I and can be used to detect toxicity ([[…] et al., 2016]). The assay was performed in a manner similar to that described by [[…] et al. (2023b)]. Briefly, cells were plated into 96-well plates the day before the assay. Cells were treated with the compounds for 4 h; then, MTT was added to a 0.5 mg/mL final concentration, and cells were incubated at 37°C in a cell incubator for 40-60 min, as a function of the cell line being assessed. The culture medium was removed, the reduced MTT dye was dissolved in dimethylsulfoxide, and plates were measured in a plate photometer (Thermo Scientific Multiscan GO spectrophotometer, Waltham, MA, United States) at 540 nm. […] In calculations, the readings for these wells were considered to 1, and all readings were expressed relative to these values. […]

[3] = test system: human primary dermal fibroblasts; experiment: MTT reduction assay on human primary dermal fibroblasts
Experimental: as §1

Structure (SMILES): CCCCC(=O)OC[C@H]1O[C@H](n2cc(-c3ccccn3)nn2)[C@H](OC(=O)CCCC)[C@@H](OC(=O)CCCC)[C@@H]1OC(=O)CCCC [Complex 5a, 1-(2’,3’,4’,6’-Tetra-O-pentanoyl-α-D-glucopyranosyl)-4-(pyridin-2-yl)-1,2,3-triazole]
- A2780 MTT max % [1]: 0%
- ID8 MTT max % [2]: 15.89%
- Fibroblast MTT max % [3]: 15.72%

Structure (SMILES): O=C(OC[C@H]1O[C@H](n2cc(-c3ccccn3)nn2)[C@H](OC(=O)c2ccccc2)[C@@H](OC(=O)c2ccccc2)[C@@H]1OC(=O)c1ccccc1)c1ccccc1 [Complex 4a, 1-(2’,3’,4’,6’-Tetra-O-benzoyl-α-D-glucopyranosyl)-4-(pyridin-2-yl)-1,2,3-triazole]
- A2780 MTT max % [1]: 0%
- ID8 MTT max % [2]: 0%
- Fibroblast MTT max % [3]: 0%

Structure (SMILES): OC[C@H]1O[C@H](n2cc(-c3ccccn3)nn2)[C@H](O)[C@@H](O)[C@@H]1O [Complex 3a, 1-(α-D-Glucopyranosyl)-4-(pyridin-2-yl)-1,2,3-triazole]
- A2780 MTT max % [1]: 0%

Structure (SMILES): O=C(OC[C@H]1O[C@H](n2cc(-c3ccc4ccccc4n3)nn2)[C@H](OC(=O)c2ccccc2)[C@@H](OC(=O)c2ccccc2)[C@@H]1OC(=O)c1ccccc1)c1ccccc1 [Complex 4b, 1-(2’,3’,4’,6’-Tetra-O-benzoyl-α-D-glucopyranosyl)-4-(quinolin-2-yl)-1,2,3-triazole]
- A2780 MTT max % [1]: 0%
- ID8 MTT max % [2]: 0%
- Fibroblast MTT max % [3]: 0%

From publication PMC12434071, “Platinum-group metal half-sandwich complexes of 1-(α-D-glucopyranosyl)-4-hetaryl-1,2,3-triazoles: synthesis, solution equilibrium studies, and investigation of their anticancer and antimicrobial activities” (Frontiers in Chemistry, 2025)
